Reference: article PMC9127186, “Molecular Basis Underlying Hepatobiliary and Renal Excretion of Phenolic Acids of Salvia miltiorrhiza Roots (Danshen)” (Frontiers in Pharmacology, 2022)
Where two headings read alike, the source gives them in different places.

Experiments:
rat Octn2 [1] = biological target: T1, rat Octn2 (Rattus norvegicus, UniProt O70594); conditions: 10 min, 100 μM
T1 sequence (O70594 1-557): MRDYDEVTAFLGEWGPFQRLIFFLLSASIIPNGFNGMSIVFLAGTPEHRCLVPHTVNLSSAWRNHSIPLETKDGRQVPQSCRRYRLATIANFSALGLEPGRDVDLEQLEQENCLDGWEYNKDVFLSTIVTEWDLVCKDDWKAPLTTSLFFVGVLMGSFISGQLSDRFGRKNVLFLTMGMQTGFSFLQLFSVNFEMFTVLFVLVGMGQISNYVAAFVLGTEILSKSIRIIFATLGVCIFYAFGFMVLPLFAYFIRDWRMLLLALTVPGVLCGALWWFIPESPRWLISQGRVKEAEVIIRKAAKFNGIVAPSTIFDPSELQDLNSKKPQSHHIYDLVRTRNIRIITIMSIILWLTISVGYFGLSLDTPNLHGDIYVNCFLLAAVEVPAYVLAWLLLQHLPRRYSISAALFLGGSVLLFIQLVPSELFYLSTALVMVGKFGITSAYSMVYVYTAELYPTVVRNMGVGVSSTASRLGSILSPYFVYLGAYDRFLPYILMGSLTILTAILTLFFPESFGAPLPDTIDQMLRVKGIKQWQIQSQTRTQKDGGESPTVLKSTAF

rat Pept2 = biological target: T2, rat Pept2 (Rattus norvegicus, UniProt Q63424); conditions: 10 min, 100 μM, pH 6
T2 sequence (Q63424 1-729): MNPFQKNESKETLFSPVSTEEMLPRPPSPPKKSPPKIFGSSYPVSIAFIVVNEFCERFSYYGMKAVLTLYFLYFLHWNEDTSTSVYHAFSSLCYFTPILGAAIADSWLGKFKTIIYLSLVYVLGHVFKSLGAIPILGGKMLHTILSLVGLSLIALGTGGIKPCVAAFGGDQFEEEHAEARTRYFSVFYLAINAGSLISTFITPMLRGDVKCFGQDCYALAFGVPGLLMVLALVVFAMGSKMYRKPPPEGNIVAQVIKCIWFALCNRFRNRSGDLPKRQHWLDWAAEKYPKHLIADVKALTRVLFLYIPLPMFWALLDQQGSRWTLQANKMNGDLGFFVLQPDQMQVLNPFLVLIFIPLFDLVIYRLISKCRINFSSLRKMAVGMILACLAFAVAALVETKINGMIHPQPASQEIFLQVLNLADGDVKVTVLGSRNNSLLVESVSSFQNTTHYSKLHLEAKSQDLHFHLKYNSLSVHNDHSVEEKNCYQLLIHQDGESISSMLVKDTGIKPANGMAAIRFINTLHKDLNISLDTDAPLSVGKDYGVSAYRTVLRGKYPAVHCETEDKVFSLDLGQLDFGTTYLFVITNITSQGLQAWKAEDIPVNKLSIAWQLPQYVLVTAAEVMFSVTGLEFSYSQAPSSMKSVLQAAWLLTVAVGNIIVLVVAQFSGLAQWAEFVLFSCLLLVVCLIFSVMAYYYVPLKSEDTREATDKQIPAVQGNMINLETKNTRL

rat Oct1 = biological target: T3, rat Oct1 (Rattus norvegicus, UniProt Q63089); experiment: Cellular transport assay, HEK-293 cells expressing rat Oct1; conditions: Danshen phenolic acid at 100 μM final concentration, 10 min; rat Oct1-transfected vs mock cells
T3 sequence (Q63089 1-556): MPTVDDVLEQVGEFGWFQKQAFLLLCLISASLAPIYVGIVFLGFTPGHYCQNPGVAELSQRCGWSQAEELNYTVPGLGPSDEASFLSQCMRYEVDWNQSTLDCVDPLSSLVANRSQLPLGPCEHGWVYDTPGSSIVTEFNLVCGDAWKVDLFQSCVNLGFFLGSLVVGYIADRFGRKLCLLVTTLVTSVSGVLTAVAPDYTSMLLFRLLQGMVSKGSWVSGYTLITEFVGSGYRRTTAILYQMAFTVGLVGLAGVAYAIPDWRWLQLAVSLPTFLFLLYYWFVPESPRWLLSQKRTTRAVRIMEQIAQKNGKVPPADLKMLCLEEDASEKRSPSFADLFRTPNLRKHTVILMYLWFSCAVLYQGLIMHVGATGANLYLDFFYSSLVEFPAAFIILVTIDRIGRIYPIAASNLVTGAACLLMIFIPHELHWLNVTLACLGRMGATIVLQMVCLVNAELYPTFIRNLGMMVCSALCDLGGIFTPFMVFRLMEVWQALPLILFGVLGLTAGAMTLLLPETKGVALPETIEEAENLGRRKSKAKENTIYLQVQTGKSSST

rat Octn2 [2] = biological target: T1, rat Octn2; experiment: Cellular transport assay, HEK-293 cells expressing rat Octn2; conditions: Danshen phenolic acid at 100 μM final concentration, 10 min; rat Octn2-transfected vs mock cells
human PEPT2 = biological target: T4, human PEPT2 (Homo sapiens, UniProt Q16348); experiment: Cellular transport assay, HEK-293 cells expressing human PEPT2; conditions: Danshen phenolic acid at 100 μM final concentration, 10 min, incubation pH 6.0; human PEPT2-transfected vs mock cells
T4 sequence (Q16348 1-729): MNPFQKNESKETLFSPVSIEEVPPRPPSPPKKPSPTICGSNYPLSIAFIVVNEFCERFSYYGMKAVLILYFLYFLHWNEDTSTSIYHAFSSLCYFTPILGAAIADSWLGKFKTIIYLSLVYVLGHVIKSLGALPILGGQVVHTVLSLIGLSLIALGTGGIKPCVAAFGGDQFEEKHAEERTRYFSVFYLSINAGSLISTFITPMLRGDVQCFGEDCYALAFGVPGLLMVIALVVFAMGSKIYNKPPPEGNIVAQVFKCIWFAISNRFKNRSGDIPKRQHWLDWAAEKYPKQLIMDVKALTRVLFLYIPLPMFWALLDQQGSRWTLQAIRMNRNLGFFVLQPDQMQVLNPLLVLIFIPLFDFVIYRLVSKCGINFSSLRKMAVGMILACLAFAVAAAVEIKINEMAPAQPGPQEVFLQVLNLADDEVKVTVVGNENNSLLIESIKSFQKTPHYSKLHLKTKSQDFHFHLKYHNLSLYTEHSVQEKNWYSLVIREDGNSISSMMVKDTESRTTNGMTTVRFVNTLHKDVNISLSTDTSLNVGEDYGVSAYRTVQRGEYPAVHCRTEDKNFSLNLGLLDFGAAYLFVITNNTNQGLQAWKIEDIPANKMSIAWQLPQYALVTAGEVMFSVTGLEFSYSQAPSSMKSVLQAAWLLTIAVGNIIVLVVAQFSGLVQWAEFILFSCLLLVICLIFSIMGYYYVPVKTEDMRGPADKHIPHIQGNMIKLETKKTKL

Compound	TransportTC/TransportMC ratio (net transport ratio) (rat Octn2 [1])	TransportTC/TransportMC ratio (net transport ratio) (rat Pept2)	TransportTC/TransportMC ratio (net transport ratio) (rat Oct1)	TransportTC/TransportMC ratio (net transport ratio) (rat Octn2 [2])	TransportTC/TransportMC ratio (net transport ratio) (human PEPT2)
O=C(/C=C/c1ccc(O)c(O)c1)O[C@H](Cc1ccc(O)c(O)c1)C(=O)O [Rosmarinic acid, rosmarinic acid]	1.14 ± 0.04	0.84 ± 0.17	–	–	–
O=C(O)c1ccc(O)c(O)c1 [Protocatechuic acid, protocatechuic acid]	–	–	1.19 ± 0.41	0.91 ± 0.17	1.43 ± 0.32
O=C(/C=C/c1ccc(O)c(O)c1/C=C/c1ccc(O)c(O)c1)O[C@H](Cc1ccc(O)c(O)c1)C(=O)O [Salvianolic acid A, salvianolic acid A]	0.95 ± 0.44	0.84 ± 0.19	–	–	–
O=C(O)Cc1c(/C=C/C(=O)O[C@H](Cc2ccc(O)c(O)c2)C(=O)O)ccc(O)c1O [Salvianolic acid D, salvianolic acid D]	–	–	1.23 ± 0.54	1.12 ± 0.22	1.03 ± 0.11
salvianolic acid B	–	–	0.66 ± 0.17	1.25 ± 0.21	1.06 ± 0.12
O=C(/C=C/c1ccc(O)c2c1[C@H](C(=O)O)[C@@H](c1ccc(O)c(O)c1)O2)O[C@H](Cc1ccc(O)c(O)c1)C(=O)O [Lithospermic acid, lithospermic acid]	–	–	1.18 ± 0.06	0.95 ± 0.11	0.74 ± 0.06
